Data set [1] has as its system HeLa cells co-transfected with a luciferase construct together with Q79-GFP. Nature of the data set: Protein synthesis by luciferase activity in Q79 expressing HeLa cells. In kind it is cell-based.
The test system of the next data set is GST-Q81 beads. Briefly: Chemical absorption assay, Q81. In kind it is binding. The note with it: 25 μM of each (FIG. 6B). As to the method: FIG. 6B is a graph of the percent of binding of various compounds to amyloid-like Q81 aggregates measured using a chemical absorption assay. The anti-amyloid compounds minocycline, Chrysamine G, Rolitetracycline, iota carrageenan, dextran 500 (dextran), or Congo red (25 μM of each) were pre-absorbed with Q81 GST recombinant protein and the percentage absorbance of the compound remaining in the supernatant after absorption with GST-Q81 beads is plotted on the y-axis.
To determine if Congo red and its derivatives directly bind to expanded polyglutamine aggregates, we designed a chemical absorption assay. This assay measures the remaining Congo red in the supernatant after incubating the supernatant with GST-tagged polyglutamine beads, and removing the GST-polyglutamine beads by centrifugation. This assay was carried out as follows. Recombinant protein GST-Q19, GST-Q62, and GST-Q81 (containing 19, 62, and 81 polyglutamines, respectively) was purified from E. coli by glutathione beads. After several washes with PBS containing protease inhibitors, the beads were allowed to settle to the bottom of the tube at 24° C. for 10 minutes. The polyglutamine-bound beads were aliquoted and diluted with two volumes of 10 μg/ml of Congo red in PBS. The beads were mixed and centrifuged at 15,000 rpm for 2 minutes and the supernatant was removed and diluted 1:100. The percentage absorbance of the compound remaining in the supernatant after absorption with the GST-polyQ beads was then detected. In addition, Congo red- or PBS-only treated polyglutamine polypeptide bead pellets were washed three times with 100 volumes of PBS and then the protein was separated by 12% polyacrylamide gels and immunoblotted as mentioned above. Some blots were used for immunostaining with anti-polyglutamine antibody (EM48). Other blots were left unstained to visualize the red color of Congo red that entered the gel along with the polyglutamine protein.
Binding of the above-identified compounds to amyloid-like Q81 aggregates was also assessed by a chemical absorption assay. The compounds indicated in FIG. 19 (25 μM of each) were pre-absorbed with a Q81 GST recombinant protein and the percentage absorbance of the compound remaining in the supernatant after absorption with GST-Q81 beads was then detected.

The subject of data set [2] is HeLa cells transfected with a Q79-GFP construct. Nature of the data set: Polyglutamine-induced cell death in HeLa cells. The note with it: Q79-GFP, compound added six hours after transfection, 1 nM to 100 μM (FIG. 4A: 100 μM), seventy-two hours post-transfection. The class given is cell-based. As to the method: FIG. 4A is two graphs showing the effect of Congo red, tetracyclines, and sulfated polyanions on polyglutamine-induced cell death in, each graph representing a separate experiment. HeLa cells transfected with a Q79-GFP construct were treated with 100 μM of minocycline (mino), Chrysamine G (CG), Rolitetracycline (Ro), iota carrageenan (iota), dextran 500 (dextran), or Congo red (CR), six hours after transfection. The amount of cell death was determined 48 hours after transfection by morphological criteria as previously described (Sanchez et al., supra).
In a cell expressing Q79-GFP polypeptides, polyglutamine aggregates are formed and the cell dies by apoptosis (Sanchez, supra). Cell viability was determined by morphological criteria characteristic of apoptosis, including cell blebbing, shrinking. Total cell lysates and tissue homogenates were obtained using Buffer A: 1% triton in PBS, containing 10 μg/ml DNAse and protease inhibitors; leupeptin 20 μg/ml, aprotinin 20 u/ml, and PMSF 100 mM. The proteins were separated by 12% SDS/PAGE and transferred to PVDF Immobilon membrane (Millipore, Inc). Antibodies used included rabbit polyclonal antibodies; EM48 (Li et al., Mol. Neurobiol. 20:111-124, 2000) anti-heat shock proteins 40 and 70 (Stressgen, Co.), and rat monoclonal anti-caspase-8 antibody.
These effects were determined by visual inspection of GFP-positive cells under an inverted fluorescence microscope. In addition, the occurrence of apoptosis of these transfected cell samples was confirmed by staining the cells with trypan blue, propidium iodide, or Hoescht 33342 to examine the cellular or nuclear morphology.
Compounds that disrupt other types of aggregates, for example, amyloid fibril aggregates were tested for their ability to disrupt pre-formed polyglutamine aggregates. HeLa Cells were transfected with a Q79-GFP construct. Six hours later, Iota-carrageenan, dextran, minocycline, rolitetracycline, and Chrysamine G (1 nM to 100 μM) were each incubated with the cells. Seventy-two hours post-transfection, the cells were evaluated for the occurrence of cell death, by visual inspection under an inverted fluorescence microscope.

The subject of the next data set is Q79-GFP aggregates. Nature of the data set: Decrease of pre-formed Q79-GFP aggregates in vitro. In kind it is biochemical. To be noted: 100 μM each; visually examined. As to the method: Q79-GFP was expressed and purified from bacteria using standard molecular biology techniques. These fusion proteins form aggregates in vitro which can be viewed under an inverted fluorescence microscope. The Q79-GFP aggregates were administered Congo red (1 nM to 100 μM) and the ability of Congo red to decrease the aggregate was visually assessed.
This assay was also carried out on Q79-GFP aggregates that were administered compounds known to disrupt other types of aggregates, for example, beta-amyloid fibril aggregates. The Q79-GFP aggregates were administered Iota-carrageenan, dextran, minocycline, rolitetracycline, or Chrysamine G Congo red (100 μM each), and visually examined for the effect of each compound on disruption of the aggregate, as well as the density and size of the aggregates.

Data set [3] concerns non-transfected HeLa cells. Briefly: Total cellular protein degradation. The class given is cell-based. The note with it: Congo red 100 μM, ZVAD 100 μM, MG132 10 μM; H3-tyrosine release, 0 to 180 minutes. As to the method: FIG. 8C is a graph of the effect of effect of Congo red, ZVAD, or the proteosome inhibitor MG132 on total cellular protein degradation in non-transfected HeLa cells.
To rule out the possibility that Congo red may have an effect on protein degradation in general, we tested the effect of Congo red on proteosome degradation. Rates of total cellular protein degradation experiments, from cells seeded in 12 well dishes at 2×10^4, treated with Congo red (100 μM), ZVAD (100 μM), or the proteosome inhibitor MG132 (10 μM) and labeled with 5 μCi/ml of H^3-tyrosine for 1 hour. One hundred microliter culture medium aliquots were collected at 0, 30, 60, 90, 120, and 180 minute time points, and the levels of H^3-tyrosine were determined using an LS6000 scintillation counter (Beckman, Co).

A further data set relates to cells; primary neurons. Nature of the data set: Compound toxicity in cells. In kind it is cell-based.
[4] abbreviates: Q79 expressing HeLa cells, various concentrations.

Counter-ions that a name gives are not always drawn. Like-named read-outs stand apart in the source and are kept apart here. Peptide text beside a SMILES is read from it. * marks the point of attachment. Cbz = O=C(OCc1ccccc1)*

In the case of `C[C@H]1C[C@@H]2[C@H]([C@@H](O)C[C@@]3(C)[C@H]2CC[C@]3(O)C(=O)COC(=O)CCC(=O)O)[C@@]2(C)C=CC(=O)C=C12` [6a-methylprednisolone 21-hemisuccinate], the “protection against inhibition of protein synthesis (luciferase activity)” value (“protection against inhibition” for short) in data set [1] (setting [4]) was “found to protect against inhibition of protein synthesis”. For `O=C(O)c1cc(/N=N/c2ccc(-c3ccc(/N=N/c4ccc(O)c(C(=O)O)c4)cc3)cc2)ccc1O` [Chrysamine G], the “binding to 81-repeat polyglutamine polypeptide” value (“binding” below) in the data set on GST-Q81 beads is on record as “binds to expanded polyglutamines”. Further, the “Polyglutamine-induced Cell Death” value in data set [2] is “+++ (Each + indicates approximately 20% cell death.)”. The “dissolution or disruption of pre-formed expanded polyglutamine repeat aggregates” value (“dissolution or disruption” for short) in the data set with Q79-GFP aggregates is “detected only after Congo red addition and daunomycin addition”. Turning to `N[C@@H]1CONC1=O` [D-cycloserine], the “protection against inhibition” value in data set [1] (setting [4]) is on record as “found to protect against inhibition of protein synthesis”. For `CC(C)C[C@@H](C=O)NC(=O)[C@H](CC(C)C)NC(=O)[C@H](CC(C)C)NC(=O)OCc1ccccc1` [MG132] (Cbz-Leu-Leu-Leu-aldehyde), the general protein degradation entry in data set [3] is given as “inhibited”. For the compound `CCCCCCCCC(=O)NCc1ccc(O)c(OC)c1` [N-vanillylnonanmide], the “protection against inhibition” value in data set [1] is listed as “found to protect against inhibition of protein synthesis”.

With `Cn1cnc([N+](=O)[O-])c1Sc1ncnc2nc[nH]c12` [azathioprine], in data set [1] (setting [4]), the “protection against inhibition” value is given as “found to protect against inhibition of protein synthesis”.

Regarding `CC(C)C[C@H]1C(=O)N2CCC[C@H]2[C@]2(O)O[C@](NC(=O)[C@@H]3C=C4c5cccc6[nH]c(Br)c(c56)C[C@H]4N(C)C3)(C(C)C)C(=O)N12` [bromocriptine mesylate], in data set [1] ([…], various concentrations), the “protection against inhibition” value is given as “found to protect against inhibition of protein synthesis”. Take `COc1cccc2c1C(=O)c1c(O)c3c(c(O)c1C2=O)C[C@@](O)(C(C)=O)C[C@@H]3O[C@H]1C[C@H](N)[C@H](O)[C@H](C)O1` [daunomycin, reference compound]: the “compound toxicity in cells” value in the data set on cells; primary neurons was “highly toxic to cells”. In the data set with Q79-GFP aggregates, the “dissolution or disruption” value was “dissolution or disruption of pre-formed expanded polyglutamine repeat aggregates were detected”. With `C[C@H]1O[C@@H](O[C@H]2[C@@H](O)C[C@H](O[C@H]3[C@@H](O)C[C@H](O[C@H]4CC[C@@]5(C)[C@H](CC[C@@H]6[C@@H]5C[C@@H](O)[C@]5(C)[C@@H](C7=CC(=O)OC7)CC[C@]65O)C4)O[C@@H]3C)O[C@@H]2C)C[C@H](O)[C@@H]1O` [digoxin], the “protection against inhibition” value in data set [1] ([…], various concentrations) was “found to protect against inhibition of protein synthesis”. `O=C(CCCN1CCC(O)(c2ccc(Cl)cc2)CC1)c1ccc(F)cc1` [haloperidol]: the “protection against inhibition” value in data set [1] (setting [4]) is “found to protect against inhibition of protein synthesis”. In the case of `C[C@]12CCC(=O)C=C1CC[C@@H]1[C@@H]2[C@@H](O)C[C@@]2(C)[C@H]1CC[C@]2(O)C(=O)CO` [hydrocortisone], the “protection against inhibition” value in data set [1] (setting [4]) was “found to protect against inhibition of protein synthesis”. Turning to `[O]=[Mg]` [magnesium oxide], in data set [1] ([…], various concentrations), the “protection against inhibition” value was “found to protect against inhibition of protein synthesis”. Take `CN(C)c1ccc(O)c2c1C[C@H]1C[C@H]3[C@H](N(C)C)C(O)=C(C(N)=O)C(=O)[C@@]3(O)C(O)=C1C2=O` [minocycline]: in data set [2], the “Polyglutamine-induced Cell Death” value is recorded as “+++ (Each + indicates approximately 20% cell death.)”.

On to `COc1ccc2cc(CCC(C)=O)ccc2c1` [nabumetone], for which, in data set [1] (setting [4]), the “protection against inhibition” value is recorded as “found to protect against inhibition of protein synthesis”. As for `Nc1ccc(/N=N/c2ccccc2)c(N)n1` [phenazopyridine], the “protection against inhibition” value in data set [1] (setting [4]) is “found to protect against inhibition of protein synthesis”. Take `CCC1(c2ccccc2)C(=O)NCNC1=O` [primidone]: in data set [1] (setting [4]), the “protection against inhibition” value is given as “found to protect against inhibition of protein synthesis”. Regarding `CN(C)[C@@H]1C(O)=C(C(=O)NCN2CCCC2)C(=O)[C@@]2(O)C(O)=C3C(=O)c4c(O)cccc4[C@@](C)(O)[C@H]3C[C@@H]12` [rolitetracycline], the “Polyglutamine-induced Cell Death” value in data set [2] is “+++ (Each + indicates approximately 20% cell death.)”. In the case of R-(−)-deprenyl hydrochloride, the “protection against inhibition” value in data set [1] ([…], various concentrations) is “found to protect against inhibition of protein synthesis”. Regarding dextran, in the data set with GST-Q81 beads, the “binding” value is recorded as “binds to expanded polyglutamines”. Also, the “Polyglutamine-induced Cell Death” value in data set [2] is reported as “+++ (Each + indicates approximately 20% cell death.)”. Besides, in the data set on Q79-GFP aggregates, the “dissolution or disruption” value was “detected only after Congo red addition and daunomycin addition”. Consider iota-carrageenan, for which, in the data set on GST-Q81 beads, the “binding” value is reported as “binds to expanded polyglutamines”. Moreover, the “Polyglutamine-induced Cell Death” value in data set [2] is “+++ (Each + indicates approximately 20% cell death.)”. Besides, the “dissolution or disruption” value in the data set with Q79-GFP aggregates was “detected only after Congo red addition and daunomycin addition”. As for neostigmine methyl ether, in data set [1] ([…], various concentrations), the “protection against inhibition” value was “found to protect against inhibition of protein synthesis”.

Source of the values: patent US20020155172A1, “Methods and compounds for decreasing cell toxicity or death” (priority 2000, published 2002).
